Experimental data: patent US20210284638A1 (Saint Louis University, priority 2018, published 2021)
Structures can show the parent of a compound that is named as a salt.

Assays:
[1] = biological target: T1, Recombinant human integrin αVβ5 (Homo sapiens, UniProt P06756+P18084); experiment: Solid Phase Receptor Assay (SPRA) for αVβ5 function; format: binding; conditions: plate-bound human vitronectin
T1 construct: purchased R&D Systems 2528-AV
Method: D. Solid Phase Receptor Assay (SPRA) for αVβ5 Function
(§1) Wells were washed 3 times with 150 μL TBS+ and then 150 μL of blocking buffer (TBS+ with 1% bovine serum albumin, Sigma A7906) was added. The plate was incubated for 1 hr at 37° C. and then washed 3× with TBS+ buffer. […] Compounds were diluted to 20 μM and then 1 μL was added to each well of the plate according to a standard template with each sample repeated in triplicate. After incubation for two hours at room temperature, the plate was washed 3× with 150 μL of TBS+ buffer. To each well, 50 μl of biotinylated anti-αV antibody (R&D Systems, BAF1219) at 0.5 μg/mL in TBS+/0.1% BSA at 0.5 μg/mL were added and the plate covered and incubated for 1 hr at room temperature. After washing the plate 3× with 150 μL of TBS+ buffer, 50 μL of streptavidin-conjugated horseradish peroxidase (R&D Systems, DY998) diluted in TBS+ blocking buffer were added to the wells and the plate incubated for 20 min at room temperature. The plate was washed 3× with TBS+ buffer followed by 50 μL of TMB substrate (Sigma T4444) added to each well in the dark and the plate incubated for 5 min at room temperature. 25 μL of 1.0 M phosphoric acid was added as a stop solution and the plates were read at 450 nm using a Spectramax plate reader.

[2] = biological target: T2, Recombinant human integrin αVβ6 (Homo sapiens, UniProt P06756+P18564); experiment: Solid Phase Receptor Assay (SPRA) for αVβ6 function; format: binding; conditions: plate-bound human LAP
T2 construct: purchased R&D Systems 3817-AV
Method: E. Solid Phase Receptor Assay (SPRA) for αVβ6 Function
as §1, with “150 μL TBS+, and then” for “150 μL TBS+ and then”, “at 37° C., and then” for “at 37° C. and then”, “well, 50 μL of biotinylated” for “well, 50 μl of biotinylated”, “TBS+/0.1% BSA were added” for “TBS+/0.1% BSA at 0.5 μg/mL were added”, “the plate was covered and” for “the plate covered and”, “incubated for 10 min at” for “incubated for 5 min at”

T1 sequence (P06756 31-992 limits assumed): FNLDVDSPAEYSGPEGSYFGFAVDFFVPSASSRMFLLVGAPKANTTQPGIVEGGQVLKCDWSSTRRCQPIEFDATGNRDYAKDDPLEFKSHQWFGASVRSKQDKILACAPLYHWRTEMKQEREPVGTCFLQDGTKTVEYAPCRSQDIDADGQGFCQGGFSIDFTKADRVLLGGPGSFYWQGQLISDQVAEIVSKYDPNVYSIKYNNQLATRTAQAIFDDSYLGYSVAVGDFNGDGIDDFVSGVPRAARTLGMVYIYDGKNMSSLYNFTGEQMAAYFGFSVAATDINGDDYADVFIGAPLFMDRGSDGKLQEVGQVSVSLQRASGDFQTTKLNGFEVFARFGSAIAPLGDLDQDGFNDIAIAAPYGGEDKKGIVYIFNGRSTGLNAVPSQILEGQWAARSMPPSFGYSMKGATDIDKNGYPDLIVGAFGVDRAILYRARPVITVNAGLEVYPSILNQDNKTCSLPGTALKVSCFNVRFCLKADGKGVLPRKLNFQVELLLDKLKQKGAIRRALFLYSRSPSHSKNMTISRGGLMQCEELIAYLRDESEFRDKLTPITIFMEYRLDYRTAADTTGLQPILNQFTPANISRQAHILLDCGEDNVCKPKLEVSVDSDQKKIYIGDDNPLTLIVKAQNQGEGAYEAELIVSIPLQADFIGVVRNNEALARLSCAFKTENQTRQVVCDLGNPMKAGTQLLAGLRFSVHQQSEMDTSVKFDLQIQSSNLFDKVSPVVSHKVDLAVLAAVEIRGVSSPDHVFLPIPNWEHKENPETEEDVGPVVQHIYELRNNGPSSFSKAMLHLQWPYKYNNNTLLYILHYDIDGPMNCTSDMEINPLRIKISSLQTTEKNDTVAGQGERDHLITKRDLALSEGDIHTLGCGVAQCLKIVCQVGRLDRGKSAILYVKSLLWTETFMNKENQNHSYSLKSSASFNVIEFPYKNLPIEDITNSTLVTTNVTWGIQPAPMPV
T1 sequence (P18084 24-719 limits assumed): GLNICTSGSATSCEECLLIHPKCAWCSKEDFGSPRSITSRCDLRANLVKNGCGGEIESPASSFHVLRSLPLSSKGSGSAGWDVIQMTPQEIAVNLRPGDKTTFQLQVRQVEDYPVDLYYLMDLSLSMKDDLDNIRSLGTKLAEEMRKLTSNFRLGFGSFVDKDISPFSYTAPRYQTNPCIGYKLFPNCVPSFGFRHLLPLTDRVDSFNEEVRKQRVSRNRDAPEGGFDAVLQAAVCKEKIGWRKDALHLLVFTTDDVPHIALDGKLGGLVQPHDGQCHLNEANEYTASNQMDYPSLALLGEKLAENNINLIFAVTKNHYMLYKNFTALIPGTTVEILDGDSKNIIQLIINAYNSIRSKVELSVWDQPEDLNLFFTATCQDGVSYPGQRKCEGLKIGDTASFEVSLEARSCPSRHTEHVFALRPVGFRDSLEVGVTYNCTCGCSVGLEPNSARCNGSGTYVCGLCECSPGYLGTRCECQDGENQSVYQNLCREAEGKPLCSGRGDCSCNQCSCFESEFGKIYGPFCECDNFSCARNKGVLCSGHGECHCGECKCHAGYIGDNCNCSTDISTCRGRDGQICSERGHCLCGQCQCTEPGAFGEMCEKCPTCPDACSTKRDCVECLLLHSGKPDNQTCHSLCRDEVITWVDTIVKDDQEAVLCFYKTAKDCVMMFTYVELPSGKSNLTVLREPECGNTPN
T2 sequence (P06756 31-992 limits assumed): as the sequence (P06756 31-992 limits assumed) above
T2 sequence (P18564 22-707 limits assumed): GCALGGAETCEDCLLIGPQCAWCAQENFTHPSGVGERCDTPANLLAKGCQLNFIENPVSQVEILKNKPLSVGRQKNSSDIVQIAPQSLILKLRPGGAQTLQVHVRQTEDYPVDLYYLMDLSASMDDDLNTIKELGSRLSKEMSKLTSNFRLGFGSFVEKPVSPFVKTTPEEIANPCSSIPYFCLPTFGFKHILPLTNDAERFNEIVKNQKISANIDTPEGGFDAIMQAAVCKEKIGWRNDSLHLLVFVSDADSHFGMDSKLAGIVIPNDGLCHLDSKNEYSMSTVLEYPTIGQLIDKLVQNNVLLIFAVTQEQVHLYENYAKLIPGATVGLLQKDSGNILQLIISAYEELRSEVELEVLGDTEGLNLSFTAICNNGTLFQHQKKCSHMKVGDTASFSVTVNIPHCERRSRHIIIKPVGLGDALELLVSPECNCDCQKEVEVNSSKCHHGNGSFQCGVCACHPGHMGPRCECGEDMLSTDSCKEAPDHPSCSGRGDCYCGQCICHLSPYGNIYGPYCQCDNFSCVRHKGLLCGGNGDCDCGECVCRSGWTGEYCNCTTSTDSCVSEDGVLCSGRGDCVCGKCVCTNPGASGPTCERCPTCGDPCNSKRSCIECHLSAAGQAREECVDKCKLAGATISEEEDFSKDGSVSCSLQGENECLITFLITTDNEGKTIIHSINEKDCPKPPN

Work on `CC(C)(C)c1cc(C(CC(=O)O)Cc2csc(CCCc3ccc4c(n3)NCCC4)n2)cc(C(C)(C)C(F)(F)F)c1` (stereo not shown) [Example 31, 3-[3-tert-butyl-5-(2,2,2-trifluoro-1,1-dimethyl-ethyl)phenyl]-4-[2-[3-(5,6,7,8-tetrahydro-1,8-naphthyridin-2-yl)propyl]thiazol-4-yl]butanoic acid] yielded an IC50 [1] of 1500 nM and an IC50 [2] of 1700 nM.

Molecule `Cn1nc(CC(CC(=O)O)c2cc(C(C)(C)C)ccc2C#N)cc1OCCc1ccc2c(n1)NCCC2` (stereo not shown) [Example 18, 3-(5-(tert-butyl)-2-cyanophenyl)-4-(1-methyl-5-(2-(5,6,7,8-tetrahydro-1,8-naphthyridin-2-yl)ethoxy)-1H-pyrazol-3-yl)butanoic acid] has an IC50 [1] of 4 nM and an IC50 [2] of 12 nM.

`Cn1nc(CC(CC(=O)O)c2cc(C(C)(C)C)cc(C3(C(F)F)CC3)c2)cc1OCCc1ccc2c(n1)NCCC2` (stereo not shown) [Example 6, 3-(3-(tert-butyl)-5-(1-(difluoromethyl)cyclopropyl)phenyl)-4-(1-methyl-5-(2-(5,6,7,8-tetrahydro-1,8-naphthyridin-2-yl)ethoxy)-1H-pyrazol-3-yl)butanoic acid] showed an IC50 [1] of 54 nM and an IC50 [2] of 140 nM.

For `CC(C)(C)c1ccc(C#N)c(C(CC(=O)O)Cc2csc(CCCc3ccc4c(n3)NCCC4)n2)c1` (stereo not shown) [Example 33, 3-(5-tert-butyl-2-cyano-phenyl)-4-[2-[3-(5,6,7,8-tetrahydro-1,8-naphthyridin-2-yl)propyl]thiazol-4-yl]butanoic acid], the IC50 [1] was 32 nM and the IC50 [2] was 150 nM.

Work on `COc1ccc(C2CCOCC2)cc1C(CC(=O)O)Cc1cc(OCCc2ccc3c(n2)NCCC3)n(C)n1` (stereo not shown) [Example 46, 3-(2-methoxy-5-(tetrahydro-2H-pyran-4-yl)phenyl)-4-(1-methyl-5-(2-(5,6,7,8-tetrahydro-1,8-naphthyridin-2-yl)ethoxy)-1H-pyrazol-3-yl)butanoic acid] yielded an IC50 [1] of 87 nM and an IC50 [2] of 260 nM.

Work on `Cn1nc(CC(CC(=O)O)c2cc(Cl)cc(C(C)(C)C#N)c2)cc1OCCc1ccc2c(n1)NCCC2` (stereo not shown) [Example 8, 3-(3-chloro-5-(2-cyanopropan-2-yl)phenyl)-4-(1-methyl-5-(2-(5,6,7,8-tetrahydro-1,8-naphthyridin-2-yl)ethoxy)-1H-pyrazol-3-yl)butanoic acid] yielded an IC50 [1] of 0.3 nM and an IC50 [2] of 36 nM.

For `COc1c(C(C)(C)C)cc(C(CC(=O)O)Cc2csc(CCCc3ccc4c(n3)NCCC4)n2)cc1C(C)(C)C` (stereo not shown) [Example 29, 3-(3,5-di-tert-butyl-4-methoxyphenyl)-4-(2-(3-(5,6,7,8-tetrahydro-1,8-naphthyridin-2-yl)propyl)thiazol-4-yl)butanoic acid], the IC50 [1] was 800 nM and the IC50 [2] was 450 nM.

`COCC1(c2cc(C(CC(=O)O)Cc3cc(OCCc4ccc5c(n4)NCCC5)n(C)n3)cc(C(C)(C)C)c2)CCOCC1` (stereo not shown) [Example 1, 3-[3-tert-butyl-5-[4-(methoxymethyl)tetrahydropyran-4-yl]phenyl]-4-[1-methyl-5-[2-(5,6,7,8-tetrahydro-1,8-naphthyridin-2-yl)ethoxy]pyrazol-3-yl]butanoic acid] showed an IC50 [1] of 44 nM and an IC50 [2] of 200 nM.

Molecule `Cn1nc(CC(CC(=O)O)c2cc(C(C)(C)C)ccc2OC(F)(F)F)cc1OCCc1ccc2c(n1)NCCC2` (stereo not shown) [Example 20, 3-(5-(tert-butyl)-2-(trifluoromethoxy)phenyl)-4-(1-methyl-5-(2-(5,6,7,8-tetrahydro-1,8-naphthyridin-2-yl)ethoxy)-1H-pyrazol-3-yl)butanoic acid] has an IC50 [1] of 590 nM and an IC50 [2] of 220 nM.

In the case of `COc1c(Br)cc(C(C)(C)C)cc1C(CC(=O)O)Cc1cc(OCCc2ccc3c(n2)NCCC3)n(C)n1` (stereo not shown) [Example 12, 3-(3-bromo-5-(tert-butyl)-2-methoxyphenyl)-4-(1-methyl-5-(2-(5,6,7,8-tetrahydro-1,8-naphthyridin-2-yl)ethoxy)-1H-pyrazol-3-yl)butanoic acid], the IC50 [1] is reported as 160 nM and the IC50 [2] is reported as 180 nM.

`COc1ccc(C(CC(=O)O)Cc2cc(OCCc3ccc4c(n3)NCCC4)n(C)n2)cc1F` (stereo not shown) [Example 44, 3-(3-fluoro-4-methoxyphenyl)-4-(1-methyl-5-(2-(5,6,7,8-tetrahydro-1,8-naphthyridin-2-yl)ethoxy)-1H-pyrazol-3-yl)butanoic acid] showed an IC50 [1] of 0.22 nM and an IC50 [2] of 44 nM.

`CC(C)c1cc(C(C)C)cc(C(CC(=O)O)Cc2cc(OCCc3ccc4c(n3)NCCC4)n(C)n2)c1` (stereo not shown) [Example 4, 3-(3,5-diisopropylphenyl)-4-[1-methyl-5-[2-(5,6,7,8-tetrahydro-1,8-naphthyridin-2-yl)ethoxy]pyrazol-3-yl]butanoic acid] gave an IC50 [1] of 6 nM and an IC50 [2] of 84 nM.

Work on `COc1ccc(S(F)(F)(F)(F)F)cc1C(CC(=O)O)Cc1cc(OCCc2ccc3c(n2)NCCC3)n(C)n1` (stereo not shown) [Example 24, 3-[2-methoxy-5-(pentafluoro-sulfanyl)phenyl]-4-[1-methyl-5-[2-(5,6,7,8-tetrahydro-1,8-naphthyridin-2-yl)ethoxy]pyrazol-3-yl]butanoic acid] yielded an IC50 [1] of 96 nM and an IC50 [2] of 48 nM.

Work on `CC(C)(C)c1cc(C(CC(=O)O)Cc2csc(CCCc3ccc4c(n3)NCCC4)n2)cc(C(C)(C)C)c1` (stereo not shown) [Example 27, 3-(3,5-di-tert-butylphenyl)-4-(2-(3-(5,6,7,8-tetrahydro-1,8-naphthyridin-2-yl)propyl)thiazol-4-yl)butanoic acid] yielded an IC50 [1] of 1100 nM and an IC50 [2] of 1000 nM.

Molecule `COc1c(C(CC(=O)O)Cc2cc(OCCc3ccc4c(n3)NCCC4)n(C)n2)cc(C(C)(C)C)cc1C(C)(C)C` (stereo not shown) [Example 11, 3-(3,5-di-tert-butyl-2-methoxyphenyl)-4-(1-methyl-5-(2-(5,6,7,8-tetrahydro-1,8-naphthyridin-2-yl)ethoxy)-1H-pyrazol-3-yl)butanoic acid] has an IC50 [1] of 17000 nM and an IC50 [2] of 11000 nM.

`COCC1(c2cc(C(CC(=O)O)Cc3csc(CCCc4ccc5c(n4)NCCC5)n3)cc(C(C)(C)C)c2)CCOCC1` (stereo not shown) [Example 32, 3-[3-tert-butyl-5-[4-(methoxymethyl)tetrahydropyran-4-yl]phenyl]-4-[2-[3-(5,6,7,8-tetrahydro-1,8-naphthyridin-2-yl)propyl]thiazol-4-yl]butanoic acid] was tested, and the IC50 [1] was 240 nM and the IC50 [2] was 130 nM.

Molecule `COc1ccc(C(C)(C)O)cc1C(CC(=O)O)Cc1cc(OCCc2ccc3c(n2)NCCC3)n(C)n1` (stereo not shown) [Example 22, 3-(5-(2-hydroxypropan-2-yl)-2-methoxyphenyl)-4-(1-methyl-5-(2-(5,6,7,8-tetrahydro-1,8-naphthyridin-2-yl)ethoxy)-1H-pyrazol-3-yl)butanoic acid] has an IC50 [1] of 10 nM and an IC50 [2] of 160 nM.

`Cn1nc(C[C@@H](CC(=O)O)c2cc3c(c(C(C)(C)C)c2)OCO3)cc1OCCc1ccc2c(n1)NCCC2` [Example 47] was tested, and the IC50 [1] was 0.067 nM and the IC50 [2] was 15 nM.

Molecule `CC(C)(C)c1ccc(Br)c(C(CC(=O)O)Cc2csc(CCCc3ccc4c(n3)NCCC4)n2)c1` (stereo not shown) [Example 34] has an IC50 [1] of 360 nM and an IC50 [2] of 3400 nM.

`COc1ccc(C2(C(F)F)CC2)cc1C(CC(=O)O)Cc1csc(CCCc2ccc3c(n2)NCCC3)n1` (stereo not shown) [Example 36, 3-(5-(1-(difluoromethyl)cyclopropyl)-2-methoxyphenyl)-4-(2-(3-(5,6,7,8-tetrahydro-1,8-naphthyridin-2-yl)propyl)thiazol-4-yl)butanoic acid] was tested, and the IC50 [1] was 150 nM and the IC50 [2] was 120 nM.

For `Cn1nc(CC(CC(=O)O)c2cc(C(C)(C)C)ccc2Br)cc1OCCc1ccc2c(n1)NCCC2` (stereo not shown) [Example 17, 3-(2-bromo-5-(tert-butyl)phenyl)-4-(1-methyl-5-(2-(5,6,7,8-tetrahydro-1,8-naphthyridin-2-yl)ethoxy)-1H-pyrazol-3-yl)butanoic acid], the IC50 [1] was 230 nM and the IC50 [2] was 1900 nM.

`CC(C)c1cc(C#N)cc(C(CC(=O)O)Cc2cc(OCCc3ccc4c(n3)NCCC4)n(C)n2)c1` (stereo not shown) [Example 2, 3-(3-cyano-5-isopropylphenyl)-4-(1-methyl-5-(2-(5,6,7,8-tetrahydro-1,8-naphthyridin-2-yl)ethoxy)-1H-pyrazol-3-yl)butanoic acid trifluoroacetic acid] gave an IC50 [1] of 0.3 nM and an IC50 [2] of 20 nM.

`Cn1nc(CC(CC(=O)O)c2cc(C(C)(C)C#N)cc(C(C)(C)C#N)c2)cc1OCCc1ccc2c(n1)NCCC2` (stereo not shown) [Example 41, 3-(3,5-bis(2-cyanopropan-2-yl)phenyl)-4-(1-methyl-5-(2-(5,6,7,8-tetrahydro-1,8-naphthyridin-2-yl)ethoxy)-1H-pyrazol-3-yl)butanoic acid trifluoroacetate] gave an IC50 [1] of 5 nM and an IC50 [2] of 37 nM.
